Reference: patent US20160361311A1, “LIGANDS THAT TARGET HEPATITIS C VIRUS E2 PROTEIN” (AMERICAN UNIVERSITY OF CAIRO, priority 2014, published 2016)

Key:
[1] = target: T1, HCV E2 protein binding to native CD81 on Raji cells (Hepatitis C virus genotype 1b, UniProt Q9WMX2); experiment: Flow cytometry: recombinant HCV E2 binding to native CD81 on Raji cells; format: cell-based, human; details: E2 pre-incubated with 1-400 μM ligand; flow cytometry MFI
T1 construct: encoding amino acids 384-656 of the Con1 envelope protein 2 ectodomain (eE2); Protein A (C); made in house; host or cells: E2: HEK293T cells (inferred); CD81: endogenous on Raji cells
Method: The human B cell line, Raji, which expresses high levels of CD81 on its surface was used to determine if ligands could inhibit the binding of HCV-E2 protein to native CD81. Cells were grown in RPMI medium (10% fetal calf serum, 1% penicillin/streptomycin, 1% L-glutamine, 1% non-essential amino acids, 1% sodium pyruvate, pH 7.4) at 37° C. in an atmosphere of 5% CO2. Purified HCV-E2 protein (4 μg) was pre-incubated with 1,5,15, 50, 100 or 400 μM of the ligand 281816 for 25 min RT. After pre-incubation the E2-ligand complex was added to the cells and incubated for 25 min. The complexes were washed from the cells and 0.5 μg of anti E2 antibody (clone H53) was added followed by secondary anti mouse-FITC (Southern Biotechnology). The cells were washed, fixed with 3% paraformaldehyde, and analyzed by flow cytometry (BD FACSCalibur, software: Cell Quest Pro) analysis. The mean fluorescence intensity (MFI) was calculated using Flowjo software (TreesStar, www.flowjo.com).
Ligand 281816 was selected based on the prediction by docking that it would bind to a site on the HCV E2 protein where CD81 binds. To confirm that the binding of 281816 to E2 inhibits the HCV E2-CD81 interaction, flow cytometry was used to monitor the binding of a recombinant form of the E2 protein to native CD81 overexpressed on Raji cells as a function of 281816 concentration.

[2] = test system: RD114pp; experiment: RD114pp infection of Huh-7 cells (luciferase); format: cell-based, feline endogenous virus RD114; details: Feline endogenous virus RD114, Huh-7, 30 h, read-out: IC50 RD114pp
Method: (§1) Pseudotyped retroviral particles harboring HCV envelope proteins (HCVpp) from different genotypes were produced as described previously. A plasmid encoding the feline endogenous virus RD114 glycoprotein [35] was used for the production of RD114pp. Both HCVpp and RD114pp expressed Firefly luciferase.
(§2) To identify ligands that inhibit HCV infection, Huh-7 cells were seeded in 96-well plates and treated the day after with six different concentrations of each ligand diluted in DMSO in duplicate using a Zephyr automated liquid handling workstation (Caliper BioSciences, Hopkinton, Mass.). The final concentration of DMSO (1%) was adjusted to be the same for all ligand concentrations. Cells treated with DMSO were used as negative controls. Cells treated with different concentrations of anti-CD81 (JS-81 from BD Pharmingen, San Jose, Calif.) 1 hour before infection, were also used as positive controls. The third day, RD114pp, HCVpp or HCVcc were inoculated and incubated for 30 hours at 37° C. Firefly and Gaussia luciferase assays were performed as indicated by the manufacturer (Promega, San Luis Obispo, Calif.).
Pseudotyped retroviral particles harboring the envelope protein of an endogenous feline retrovirus (RD114pp) were first used to determine the specificity and the safety of molecules.

[3] = test system: HCVcc; experiment: HCVcc infection of Huh-7 cells (Gaussia luciferase); format: cell-based, HCV; details: Hepatitis C virus, Huh-7, 30 h, read-out: IC50 HCVcc
Method: The cell culture-produced HCV particles (HCVcc) used in this study were based on the JFH1 strain [36] and were prepared as described previously. They were engineered to express the A4 epitope, titer-enhancing mutations and Gaussia luciferase.
as §2
The remaining ligands were next tested against pseudotyped retroviral particles harboring genotype-2a HCV envelope proteins (HCVpp 2a), cell culture produced HCV particles (HCVcc) or RD114pp. As a positive control, an anti-CD81 antibody was used in parallel.

[4] = test system: HCV genotypes 1a, 1b, 2a, 2b, 4a and 6a; experiment: HCVpp infection assays over all genotypes tested (summary statements); format: cell-based
Method: as §1, §2
The analysis of the effect of 281816 ligand on Huh-7 infection by HCVpp bearing envelope proteins from different genotypes was performed in 24-well plates using the method described above. […]

T1 sequence (Q9WMX2 384-656): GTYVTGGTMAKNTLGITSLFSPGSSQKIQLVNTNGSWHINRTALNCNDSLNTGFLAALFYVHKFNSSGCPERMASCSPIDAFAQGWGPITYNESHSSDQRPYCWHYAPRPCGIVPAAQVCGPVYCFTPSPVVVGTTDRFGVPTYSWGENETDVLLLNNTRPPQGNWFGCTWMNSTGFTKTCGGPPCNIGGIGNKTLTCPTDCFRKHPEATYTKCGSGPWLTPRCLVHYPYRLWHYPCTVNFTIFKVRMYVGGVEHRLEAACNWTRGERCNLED

Question: Which “inhibition of E2 protein binding to CD81 on Raji cells” value [1] does the source give for `CSc1ccc2c(c1)C(N1CCN(C)CC1)Cc1ccccc1S2` (centres unmarked) [Ligand 281816] here?
Answer: inhibited by 281816 in a dose-dependent manner up to 100 μM

Question: And the IC50 [2]?
Answer: > 10 µM

Question: What about the IC50 [3] of the same molecule?
Answer: 3.95 µM

Question: What about the IC50 ([4]; Hepatitis C virus, read-out: IC50 range over HCV genotypes) of the same molecule?
Answer: 2.2 to 4.6 µM

Question: And the “block of hepatocyte infection (in words)” value ([4]; genotypes 1a, 1b, 2a, 2b, 4a and 6a)?
Answer: block infection of hepatocytes by each of the HCV genotypes and subtypes tested
